We go through four molecules from PubChem BioAssay (NCI).

Test systems include A498 renal; DMS 273 small cell lung; EKVX NSCLC; HT29 colon; LOX IMVI melanoma; NCI-H226 lung; NCI-H23 lung; RXF 393 renal; SK-MEL-5 melanoma; UACC-62 melanoma.
Assay in all cases: NCI anticancer screen, dose series, 48 h

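Five concentrations, 48 hours, 96-well plates. Abbreviation: GI50, concentration required for 50% inhibition of growth. TGI denotes the concentration required for complete inhibition of growth.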

With `O=Cc1ccccc1OCCOc1cc(OCCOc2ccccc2C=O)c(OCCOc2ccccc2C=O)cc1OCCOc1ccccc1C=O`, the TGI in the assay on A498 renal, with DMS 273 small cell lung, with EKVX NSCLC, in the assay with HT29 colon, in the assay with LOX IMVI melanoma and with NCI-H226 lung was more than 100 µM throughout. For the same molecule, the TGI with NCI-H23 lung, with RXF 393 renal, in the assay on SK-MEL-5 melanoma and in the assay on UACC-62 melanoma was more than 100 µM throughout.

Take `CN(C)c1ccc([O-])cc1.CN(C)c1ccc([O-])cc1.CN(C)c1ccc([O-])cc1.CN(C)c1ccc([O-])cc1.[Ti+4]`: the GI50 in the assay with A498 renal is 19.4 µM; with DMS 273 small cell lung, 34.3 µM; in the assay on EKVX NSCLC, more than 100 µM; in the assay with HT29 colon, more than 100 µM; in the assay with LOX IMVI melanoma, 76.9 µM; in the assay with NCI-H226 lung, more than 100 µM. Moreover, the GI50 with NCI-H23 lung was more than 100 µM; in the assay on RXF 393 renal, 59 µM; in the assay on SK-MEL-5 melanoma, 51.5 µM; with UACC-62 melanoma, more than 100 µM. In addition, the TGI with A498 renal, in the assay on DMS 273 small cell lung, with EKVX NSCLC, in the assay with HT29 colon, in the assay on LOX IMVI melanoma and with NCI-H226 lung was more than 100 µM in each case. Moreover, the TGI with NCI-H23 lung, with RXF 393 renal, in the assay on SK-MEL-5 melanoma and in the assay with UACC-62 melanoma was more than 100 µM throughout.

In the case of `CC(=O)Nc1ccc(C(=O)NN2C(=O)C(Cl)C2c2ccc([N+](=O)[O-])cc2)cc1` (stereo not given), the TGI in the assay with A498 renal, in the assay with DMS 273 small cell lung, in the assay on EKVX NSCLC, in the assay on HT29 colon, in the assay on LOX IMVI melanoma and in the assay with NCI-H226 lung was more than 100 µM throughout. In addition, the TGI in the assay with NCI-H23 lung, with RXF 393 renal, in the assay on SK-MEL-5 melanoma and in the assay on UACC-62 melanoma was more than 100 µM each time.

Regarding `CCO/C=C/C(C)C1(C(=O)OCC)CCCCC1=O` (stereo not given), the TGI with A498 renal was more than 100 µM; in the assay on DMS 273 small cell lung, 47 µM; in the assay on EKVX NSCLC, more than 100 µM; in the assay on HT29 colon, more than 100 µM; in the assay on LOX IMVI melanoma it was more than 100 µM; with NCI-H226 lung, more than 100 µM. Moreover, the TGI with NCI-H23 lung, in the assay on RXF 393 renal, in the assay on SK-MEL-5 melanoma and in the assay on UACC-62 melanoma was more than 100 µM each time.
